Biological target: T1, hP2X3 (human Purinergic P2X receptors subtype 3), clone B (Homo sapiens, UniProt P56373)
T1 sequence (P56373 1-397): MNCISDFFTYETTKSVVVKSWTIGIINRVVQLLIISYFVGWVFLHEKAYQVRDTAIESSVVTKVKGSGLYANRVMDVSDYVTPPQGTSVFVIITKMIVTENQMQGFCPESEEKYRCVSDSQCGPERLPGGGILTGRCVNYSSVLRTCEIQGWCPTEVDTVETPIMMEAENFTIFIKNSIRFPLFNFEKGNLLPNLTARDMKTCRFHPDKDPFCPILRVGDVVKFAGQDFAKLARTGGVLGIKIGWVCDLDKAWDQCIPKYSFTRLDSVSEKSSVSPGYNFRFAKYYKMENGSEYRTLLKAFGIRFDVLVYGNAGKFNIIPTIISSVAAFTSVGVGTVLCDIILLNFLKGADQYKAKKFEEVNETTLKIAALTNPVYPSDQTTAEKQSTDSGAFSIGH
Test: hP2X3 FLIPR calcium (Fluo-4) antagonist assay, clone B
Settings: Human P2X3 FLIPR Clone B IC50 (nM), RLE cells expressing hP2X3 clone B (NM_002559); agonist 500 nM α,β-methylene-ATP
Description: The assay used a calcium indicator dye (Fluo-4) that emits fluorescence, the intensity of which is related to the concentration of calcium that entered the cell when P2X3 was activated and the channel opened. Activation of hP2X3 or rat P2X3 and rat P2X2/3 (from the coexpression of rat P2X3 and rat P2×2) is elicited the by P2X3 agonist α,β methylene-ATP (Sigma M6517), and the resulting fluorescence is measured with a FLIPR II™ instrument (Molecular Devices). Compounds are tested for their ability to inhibit the agonist-induced fluorescent signal.
For the rat P2X2/3 HEK-TREX cells, induction of the rat P2X3 expression is used to generate the rat P2X2/3 channels in HEK-TREX cells and performed by addition of 1 μg/mL tetracycline (Invitrogen) 24 h prior to compounds testing to the HEK-TREX expressing the rat P2X2 constitutively. On the day of the experiment, the cells and test compounds are prepared as follows. […] After preparing the compounds, the medium is removed from the cell plates by inversion. A loading solution of 30 μL assay buffer containing 4 μM of the calcium indicator dye FLUO-4 AM (Molecular Probes F14202) is added to each well using a Multidrop (Labsystems). […] The incubation is terminated by washing the cells four times in assay buffer using a Skatron Embla (Molecular Devices), and 25 μL of assay buffer was left in each well. Cell plates are then transferred to the FLIPR. Experiments are initiated by measuring a baseline fluorescence reading for 10 seconds, followed by the addition of 12.5 μL of cpds and data sampling for a total 280 seconds. The experiments are terminated by addition of 12.5 μL of a reference agonist (500 nM α,β-methylene-ATP) or buffer, producing a final assay volume of 50 μL followed by data sampling for an additional 280 seconds.
In P2X3 antagonist experiments (human and rat assays) data are analysed as normalised maximal peak fluorescence monitored following agonist addition and calculated as percent of relative fluorescent counts from control agonist. The dose-response antagonist inhibition curves are analyzed in a 4-parameter sigmoidal fit using a non-linear curve-fitting program (XLfit version 5.0.6, ID Business Solutions Limited, Guildford, UK).

How did the IC50 turn out when `CC(=O)N1CCN(c2nc3c(c(N(Cc4ccccc4)CC4CCCO4)n2)CN(C(C)C)C3=O)CC1` (stereo not shown) [Example 3, 2-(4-acetylpiperazin-1-yl)-4-[benzyl(tetrahydrofuran-2-ylmethyl)amino]-6-isopropyl-5,6-dihydro-7H-pyrrolo[3,4-d]pyrimidin-7-one] was run?
Its IC50 is 4600 nM.

For `CC(C)N1Cc2c(NC(C)(C)Cc3ccc(Cl)cc3)nc(N3CCN(C(=O)C(C)(C)C)CC3)nc2C1=O` [Example 125, 4-{[2-(4-chlorophenyl)-1,1-dimethylethyl]amino}-2-[4-(2,2-dimethylpropanoyl)piperazin-1-yl]-6-isopropyl-5,6-dihydro-7H-pyrrolo[3,4-d]pyrimidin-7-one], which IC50 is on record?
Its IC50 is 3800 nM.

Which IC50 does the source give for `CC(=O)N1CCN(c2nc(NC(C)(C)Cc3ccc(F)cc3)c3c(n2)C(=O)N(Cc2ccccc2Cl)C3)CC1` [Example 315, 2-(4-acetylpiperazin-1-yl)-6-(2-chlorobenzyl)-4-(1-(4-fluorophenyl)-2-methylpropan-2-ylamino)-5H-pyrrolo[3,4-d]pyrimidin-7(6H)-one] here?
Its IC50 is 3000 nM.

For `CC(=O)N1CCN(c2nc(NC(C)C3COc4ccccc4O3)c3c(n2)C(=O)N(C(C)C)C3)CC1` (single isomer, unassigned) [Example 179, 2-(4-acetylpiperazin-1-yl)-4-(1-(2,3-dihydrobenzo[b][1,4]dioxin-2-yl)ethylamino)-6-isopropyl-5H-pyrrolo[3,4-d]pyrimidin-7(6H)-one], which IC50 is on record?
Its IC50 is 190 nM.

With `CC(C)N1Cc2c(NCc3cnc4ccccc4c3)nc(NCC3CCOCC3)nc2C1=O` [Example 219, 6-(1-methylethyl)-4-[(quinolin-3-ylmethyl)amino]-2-[(tetrahydro-2H-pyran-4-ylmethyl)amino]-5,6-dihydro-7H-pyrrolo[3,4-d]pyrimidin-7-one] as the compound, how does the IC50 read?
Its IC50 is 8400 nM.

Which IC50 does the source give for `CC(=O)N1CCN(c2nc3c(c(N(Cc4ccccc4)Cc4ccccc4)n2)CN(C(C)C)C3=O)CC1` [Example 95, 2-(4-Acetyl-piperazin-1-yl)-4-dibenzylamino-6-isopropyl-5,6-dihydro-pyrrolo[3,4-d]-pyrimidin-7-one] here?
Its IC50 is 430 nM.

For `CC(=O)N1CCN(c2nc3c(c(N(C)Cc4cnc5ccccc5c4)n2)CN(C(C)C)C3=O)CC1` [Example 346, 2-(4-acetylpiperazin-1-yl)-6-isopropyl-4-(methyl(quinolin-3-ylmethyl)amino)-5H-pyrrolo[3,4-d]pyrimidin-7(6H)-one], which IC50 is on record?
The IC50 was 47 nM.

With `CC(C)N1Cc2c(NCc3cnc4ccccc4c3)nc(N3CCN(C(=O)C4CC4)CC3)nc2C1=O` [Example 222, 2-[4-(cyclopropylcarbonyl)piperazin-1-yl]-6-(1-methylethyl)-4-[(quinolin-3-ylmethyl)amino]-5,6-dihydro-7H-pyrrolo[3,4-d]pyrimidin-7-one] as the compound, how does the IC50 read?
The IC50 was 6300 nM.

How did the IC50 turn out when `CC1CN(c2nc(NC(c3ccccc3)c3ccccc3)c3c(n2)C(=O)N(C(C)C)C3)CC(C)O1` (stereo not shown) [Example 86, 4-(Benzhydryl-amino)-2-(2,6-dimethyl-morpholin-4-yl)-6-isopropyl-5,6-dihydro-pyrrolo[3,4-d]pyrimidin-7-one] was run?
The IC50 was 280 nM.

With `CC(C)N1Cc2c(NC3c4cc(F)ccc4CCc4ncccc43)nc(NCCN(C)C)nc2C1=O` (stereo not shown) [Example 22, 2-{[2-(dimethylamino)ethyl]amino}-4-[(7-fluoro-10,11-dihydro-5H-benzo[4,5]cyclohepta[1,2-b]pyridin-5-yl)amino]-6-isopropyl-5,6-dihydro-7H-pyrrolo[3,4-d]pyrimidin-7-one] as the compound, how does the IC50 read?
The IC50 was 270 nM.

`CC(=O)NCCNc1nc2c(c(N3CCCC3Cc3ccc(Cl)cc3)n1)CN(C(C)C)C2=O` (stereo not shown) [Example 45, N-[2-({4-[2-(4-chlorobenzyl)pyrrolidin-1-yl]-6-isopropyl-7-oxo-6,7-dihydro-5H-pyrrolo[3,4-d]pyrimidin-2-yl}amino)ethyl]acetamide] was tested. Which IC50 did it give?
Its IC50 is 2200 nM.

With `CC(=O)N1CCN(c2nc(NCc3n[nH]c4c3CCC4)c3c(n2)C(=O)N(C(C)C)C3)CC1` [Example 151, 4-(4-acetylpiperazin-1-yl)-2-(6,7-diazabicyclo[3.3.0]octa-7,9-dien-8-ylmethylamino)-8-propan-2-yl-3,5,8-triazabicyclo[4.3.0]nona-1,3,5-trien-7-one] as the compound, how does the IC50 read?
The IC50 was 940 nM.

For `CCN1CCN(c2nc(NC(c3ccccc3)c3ccccc3)c3c(n2)C(=O)N(C(C)C)C3)CC1` [Example 78, 4-(Benzhydryl-amino)-2-(4-ethyl-piperazin-1-yl)-6-isopropyl-5,6-dihydro-pyrrolo[3,4-d]pyrimidin-7-one], which IC50 is on record?
The IC50 was 400 nM.

`CC(=O)N1CCN(c2nc3c(c(N(C)Cc4ccc5ncccc5c4)n2)CN(C(C)C)C3=O)CC1` [Example 239, 2-(4-acetylpiperazin-1-yl)-6-isopropyl-4-(methyl(quinolin-6-ylmethyl)amino)-5H-pyrrolo[3,4-d]pyrimidin-7(6H)-one] was tested. Which IC50 did it give?
The IC50 was 1200 nM.

For `CC(C)N1Cc2c(nc(NCCN(C)C)nc2N(Cc2ccccc2)Cc2ccccc2)C1=O` [Example 106, 4-Dibenzylamino-2-(2-dimethylamino-ethylamino)-6-isopropyl-5,6-dihydro-pyrrolo[3,4-d]-pyrimidin-7-one], which IC50 is on record?
Its IC50 is 5300 nM.

Which IC50 does the source give for `CC(C)N1Cc2c(NC(c3ccccc3)c3ccccc3)nc(NCCN(C)C)nc2C1=O` [Example 97, 4-(Benzhydryl-amino)-2-(2-dimethylamino-ethylamino)-6-isopropyl-5,6-dihydro-pyrrolo[3,4-d]pyrimidin-7-one] here?
Its IC50 is 230 nM.

How did the IC50 turn out when `CC(C)N1Cc2c(NCc3cnc4ccccc4c3)nc(N3CCN4CCCC4C3)nc2C1=O` (stereo in doubt) [Example 141, (R)-2-(Hexahydro-pyrrolo[1,2-a]pyrazin-2-yl)-6-isopropyl-4-[(quinolin-3-ylmethyl)-amino]-5,6-dihydro-pyrrolo[3,4-d]pyrimidin-7-one] was run?
Its IC50 is 7600 nM.

`COCCNc1nc2c(c(N3CCCC3Cc3ccc(Cl)cc3)n1)CN(C(C)C)C2=O` (stereo not shown) [Example 44, 4-[2-(4-chlorobenzyl)pyrrolidin-1-yl]-6-isopropyl-2-[(2-methoxyethyl)amino]-5,6-dihydro-7H-pyrrolo[3,4-d]pyrimidin-7-one] was tested. Which IC50 did it give?
The IC50 was 9600 nM.

How did the IC50 turn out when `Cc1ccc(C(Nc2nc(N3CCOCC3)nc3c2CN(C(C)C)C3=O)c2ccccc2)cc1` (stereo not shown) [Example 76, 6-isopropyl-2-morpholin-4-yl-[(phenyl-p-tolyl-methyl)-amino]-5,6-dihydro-pyrrolo[3,4-d]pyrimidin-7-one] was run?
Its IC50 is 230 nM.

For `CC(C)N1Cc2c(NC(C)(C)Cc3ccc(Cl)cc3)nc(NCCCN3CCCC3=O)nc2C1=O` [Example 66, 4-{[2-(4-chlorophenyl)-1,1-dimethylethyl]amino}-6-isopropyl-2-{[3-(2-oxopyrrolidin-1-yl)propyl]amino}-5,6-dihydro-7H-pyrrolo[3,4-d]pyrimidin-7-one], which IC50 is on record?
Its IC50 is 1400 nM.

`CC(=O)N1CCN(c2nc3c(c(N4CCCC4c4ccc5ncccc5c4)n2)CN(C(C)C)C3=O)CC1` (single isomer, unassigned) [Example 284, 4-(4-acetylpiperazin-1-yl)-8-propan-2-yl-2-(2-quinolin-6-ylpyrrolidin-1-yl)-3,5,8-triazabicyclo[4.3.0]nona-1,3,5-trien-7-one] was tested. Which IC50 did it give?
The IC50 was 9900 nM.

With `CC(C)N1Cc2c(NCc3cnc4ccccc4c3)nc(N3CCN(C)C(=O)C3)nc2C1=O` [Example 210, 6-isopropyl-2-(4-methyl-3-oxopiperazin-1-yl)-4-(quinolin-3-ylmethylamino)-5H-pyrrolo[3,4-d]pyrimidin-7(6H)-one] as the compound, how does the IC50 read?
The IC50 was 320 nM.

`CC(C)N1Cc2c(NC(C)(C)Cc3ccc(Cl)cc3)nc(N3C[C@@H](C)O[C@@H](C)C3)nc2C1=O` [Example 61, 4-{[2-(4-chlorophenyl)-1,1-dimethylethyl]amino}-2-[(2R,6S)-2,6-dimethylmorpholin-4-yl]-6-isopropyl-5,6-dihydro-7H-pyrrolo[3,4-d]pyrimidin-7-one] was tested. Which IC50 did it give?
The IC50 was 1400 nM.

`CC(=O)N1CCN(c2nc3c(c(N4CCC[C@@H]4C(=O)N4CCc5ccccc54)n2)CN(C(C)C)C3=O)CC1` [Example 279, 4-(4-acetylpiperazin-1-yl)-2-[(2R)-2-(2,3-dihydroindole-1-carbonyl)pyrrolidin-1-yl]-8-propan-2-yl-3,5,8-triazabicyclo[4.3.0]nona-1,3,5-trien-7-one] was tested. Which IC50 did it give?
The IC50 was 1800 nM.

`CC(=O)N1CCN(c2nc(Nc3cccc(C(C)C)c3)c3c(n2)C(=O)N(C(C)C)C3)CC1` [Example 105, 2-(4-Acetyl-piperazin-1-yl)-6-isopropyl-4-(3-isopropyl-phenylamino)-5,6-dihydro-pyrrolo[3,4-d]-pyrimidin-7-one] was tested. Which IC50 did it give?
Its IC50 is 9300 nM.

`CC(=O)N1CCN(c2nc(N[C@H](C)c3ccc(Cl)c(C(F)(F)F)c3)c3c(n2)C(=O)N(C(C)C)C3)CC1` [Example 171, (R)-2-(4-acetylpiperazin-1-yl)-4-(1-(4-chloro-3-(trifluoromethyl)phenyl)ethylamino)-6-isopropyl-5H-pyrrolo[3,4-d]pyrimidin-7(6H)-one] was tested. Which IC50 did it give?
The IC50 was 290 nM.

How did the IC50 turn out when `COc1ccccc1CC(C)(C)Nc1nc(N2CCN(C(C)=O)CC2)nc2c1CN(C(C)C)C2=O` [Example 195, 2-(4-acetylpiperazin-1-yl)-6-isopropyl-4-(1-(2-methoxyphenyl)-2-methylpropan-2-ylamino)-5H-pyrrolo[3,4-d]pyrimidin-7(6H)-one] was run?
Its IC50 is 18000 nM.

Which IC50 does the source give for `CC(=O)N1CCN(c2nc(NCC3OCCc4ccccc43)c3c(n2)C(=O)N(C(C)C)C3)CC1` (stereo not shown) [Example 205, 2-(4-acetylpiperazin-1-yl)-4-(isochoman-1-ylmethylamino)-6-isopropyl-5H-pyrrolo[3,4-d]pyrimidin-7(6H)-one] here?
Its IC50 is 5300 nM.

Reference: patent US20090099195A1 (ASTRAZENECA AB, priority 2007, published 2009)
